One test deals with CCK-A receptor. In words: CCK receptor binding, CCK-A receptor (Pancreas Assay), Dal Forno procedure. As to the method: (§1) The greater affinity of the compounds of the invention for the CCK-B receptor over the CCK-A receptor has also been established using the CCK receptor binding assays described by G Dal Fornos et al., J. Pharmcol. Exp & Ther. 261, 1056-1063, 1992.
(§2) The binding affinity of the compounds of the invention for the CCK-A receptor (Pancreas Assay) and CCK-B receptor (guinea pig cortex assay) was determined using the procedure of G Dal Forno et al J. Pharmacol. Exp & Ther. 261-1056-1063. The pKi values determined with respresentative compounds of invention were as follows: […]

Another test concerns the target T1, CCK-B receptor (Cavia porcellus, UniProt H0VZC5).
T1 construct: CCK-B receptor (guinea pig cortex assay); from tissue; host or cells: guinea pig cortex
As to the kind of experiment: CCK receptor binding, CCK-B receptor (guinea pig cortex assay), Dal Forno procedure. As to conditions: read-out: pKi CCK-B (converted). As to the method: as §1, §2

Results on three compounds are retold here after US5641775A, “3-phenylureido-1,5-benzodiazepine-diones useful as gastrin or antagonists” (Glaxo SpA, priority 1993, dated 1997).

T1 sequence (H0VZC5 entry or part of it): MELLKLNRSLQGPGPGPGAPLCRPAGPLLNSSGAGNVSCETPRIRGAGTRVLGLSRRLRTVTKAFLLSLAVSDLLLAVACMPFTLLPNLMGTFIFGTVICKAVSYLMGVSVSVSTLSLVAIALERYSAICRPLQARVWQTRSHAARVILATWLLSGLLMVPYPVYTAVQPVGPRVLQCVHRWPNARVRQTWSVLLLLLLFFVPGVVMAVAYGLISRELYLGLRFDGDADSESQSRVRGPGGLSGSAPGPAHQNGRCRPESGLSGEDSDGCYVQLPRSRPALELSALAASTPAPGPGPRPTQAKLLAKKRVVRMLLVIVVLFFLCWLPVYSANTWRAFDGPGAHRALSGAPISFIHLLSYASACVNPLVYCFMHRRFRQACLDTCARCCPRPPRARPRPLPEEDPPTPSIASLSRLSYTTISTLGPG

In the case of `O=C(Nc1cccc(-c2nn[nH]n2)c1)NC1C(=O)N(CCC2CCCC2)c2ccccc2N(c2ccccc2F)C1=O` (single isomer, unassigned; (+)) [Example 4, (+)-N-[1-(Cyclopentylethyl)-2,4-dioxo-5-(2-fluorophenyl)-2,3,4,5-tetrahydro-1H-benzodiazepin-3-yl]-N'-(3-tetrazolyl)phenylurea], the “pKi CCK-A” value on CCK-A receptor was found to be 6.63. Besides, on CCK-B receptor, the Ki is 0.105 nM.

Consider `O=C(Nc1cccc(-c2nn[nH]n2)c1)NC1C(=O)N(CCC2CCCC2)c2ccccc2N(c2ccccc2F)C1=O` (single isomer, unassigned; (-)) [Example 5, (-)-N-[1-(Cyclopentylethyl)-2,4-dioxo-5-(2-fluorophenyl)-2,3,4,5-tetrahydro-1H-benzodiazepin-3-yl]-N'-(3-tetrazolyl)phenylurea], for which the “pKi CCK-A” value on CCK-A receptor is reported as 6.51. The Ki on CCK-B receptor was 0.269 nM.

Turning to `CC(C)(C)CCN1C(=O)C(NC(=O)Nc2cccc(-c3nnn[nH]3)c2)C(=O)N(c2ccccc2)c2ccccc21` (stereo not drawn) [Example 3, N-[1-(3,3-Dimethylbutyl)-2,4-dioxo-5-phenyl-2,3,4,5-tetrahydro-1H-1,5-benzodiazepine-3-yl]-N'[3-(5-tetrazolyl)-phenyl]urea], at CCK-A receptor, the “pKi CCK-A” value is listed as 7.64. The Ki on CCK-B receptor was 0.288 nM.
